The values below come from patent US20170280720A1, “ARGININE […] INHIBITORS AND USES THEREOF” (EPIZYME, INC., priority 2014, published 2017).

Molecules are shown by their SMILES. pIC50: −log10 of the molar value.

As usually defined, the pIC50 is the negative decadic logarithm of the IC50, by convention in mol/L.

In this assay the target is T1, human PRMT1 (Homo sapiens, UniProt Q99873).
T1 construct: GST-tagged PRMT1; made in house; host or cells: High Five insect cells (baculovirus, pFastBacI)
T1 sequence (Q99873 with tags, fused parts or gaps): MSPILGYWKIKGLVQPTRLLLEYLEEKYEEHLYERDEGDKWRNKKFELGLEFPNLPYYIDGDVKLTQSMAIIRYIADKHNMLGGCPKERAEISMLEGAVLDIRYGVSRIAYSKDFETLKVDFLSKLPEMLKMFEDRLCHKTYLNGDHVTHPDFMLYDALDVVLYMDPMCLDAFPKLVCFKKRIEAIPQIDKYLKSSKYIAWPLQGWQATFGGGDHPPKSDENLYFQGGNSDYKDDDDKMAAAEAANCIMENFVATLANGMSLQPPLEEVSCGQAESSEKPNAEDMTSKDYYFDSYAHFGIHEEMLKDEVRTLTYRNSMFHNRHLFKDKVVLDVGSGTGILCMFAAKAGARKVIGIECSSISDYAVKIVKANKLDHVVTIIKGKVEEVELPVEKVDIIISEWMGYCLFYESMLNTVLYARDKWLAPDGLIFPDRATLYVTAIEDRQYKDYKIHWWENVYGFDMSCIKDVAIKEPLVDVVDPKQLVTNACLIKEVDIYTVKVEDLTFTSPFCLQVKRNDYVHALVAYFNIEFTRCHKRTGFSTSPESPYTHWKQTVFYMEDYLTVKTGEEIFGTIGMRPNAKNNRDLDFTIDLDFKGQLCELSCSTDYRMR
The assay is described as follows: PRMT1 biochemical assay (3H-SAM Flashplate, peptide substrate). The settings on record: read-out: PRMT1_ IC50. In outline: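 FLAG-tagged full-length human PRMT1 (0.5 nM, GST-tagged, insect-cell expressed) preincubated 30 min at RT with compound, then biotinylated histone H4 36-50 peptide (20 nM) plus 200 nM 3H-SAM and 1.5 uM SAM in Bicine pH 7.6, 2% DMSO. 3H-methylated peptide captured on streptavidin Flashplate; IC50 from 3/4-parameter fit.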
In the case of `CNCCN(C)Cc1cccc(-c2cc(C(=O)NCCCCC(=O)NCc3c(C)cc(C)[nH]c3=O)c3cnn(C(C)C)c3n2)c1` [Compound 385], the negative logarithm of the IC50 (pIC50) is 6.63.

Regarding `Cc1cc(C)c(CNC(=O)c2cc(-c3cccc(CNCCN)c3)nc3c2cnn3C(C)C)c(=O)[nH]1` [Compound 365], the negative logarithm of the IC50 (pIC50) was 5.13.

In the case of `COc1nc(C)cc(C)c1CNC(=O)c1cc(-c2cccc(CN(C)CCN(C)C)c2)nc2c1cnn2C(C)C` [Compound 386], the pIC50 is 5.79.

With `Cc1cc(C)c(CNC(=O)c2cncc(-c3ccc(CN(C)CCN)cc3)c2)c(=O)[nH]1` [Compound 374], the pIC50 was 7.14.

As to `COc1nc(C)cc(C)c1CNC(=O)c1cc(-c2cccc(CNCCN)c2)nc2c1cnn2C(C)C` [Compound 391], the pIC50 is 5.92.

For `CNCCN(C)Cc1cccc(-c2cc(C(=O)NCCCCCC(=O)NCc3c(C)cc(C)[nH]c3=O)c3cnn(C(C)C)c3n2)c1` [Compound 382], the pIC50 is 6.75.

In the case of `CNCCN(C)Cc1ccc(-c2cc(C(=O)NCc3c(C)cc(C)[nH]c3=O)c(C)c3nn(C4CCCC4)cc23)cc1` [Compound 370], the negative logarithm of the IC50 (pIC50) was 6.38.

`Cc1cc(C)c(CNC(=O)c2cc(-c3cccc(CN(C)CCN)c3)nc3c2cnn3C(C)C)c(=O)[nH]1` [Compound 360]: the pIC50 is 6.60.

As for `CNCCN(C)Cc1cccc(-c2cc(C(=O)NCc3c(C)cc(C)[nH]c3=O)c(C)c3[nH]ncc23)c1` [Compound 372], the pIC50 is 7.22.

Take `Cc1cc(C)c(CNC(=O)c2cc(-c3cccc(CN(C)CCN(C)C)c3)nc3c2cnn3C(C)C)c(=O)[nH]1` [Compound 361]: the negative-log IC50 (pIC50) was 5.37.

For the molecule `CNCCN(C)Cc1ccc(-c2cncc(C(=O)NCc3c(C)cc(C)[nH]c3=O)c2)cc1` [Compound 373], the negative logarithm of the IC50 (pIC50) is 7.19.

For the molecule `CNCCN(C)Cc1cccc(-c2cc(C(=O)NCCCC(=O)NCc3c(C)cc(C)[nH]c3=O)c3cnn(C(C)C)c3n2)c1` [Compound 383], the pIC50 was 6.67.

Take `CNCCN(C)Cc1cccc(-c2cc(C(=O)NCc3c(C)cc(C)[nH]c3=O)c3cnn(C(C)C)c3n2)c1` [Compound 368]: the negative logarithm of the IC50 (pIC50) is 7.06.

On to `CNCCN(C)Cc1cccc(-c2nc(NCc3nccs3)c3cnn(C4CC4)c3n2)c1` [Compound 2], for which the pIC50 was 7.66.

Regarding `Cc1cc(C)c(CNC(=O)c2cncc(-c3ccc(CN(C)CCN(C)C)cc3)c2)c(=O)[nH]1` [Compound 378], the negative-log IC50 (pIC50) is 6.53.

Take `CNCCN(C)Cc1ccc(-c2cc(C(=O)NCc3c(C)cc(C)[nH]c3=O)c(C)c3n[nH]cc23)cc1` [Compound 362]: the negative logarithm of the IC50 (pIC50) is 6.98.

As for `CNCCN(C)Cc1cccc(-c2cc(C(=O)NCc3c(C)cc(C)[nH]c3=O)c3cnn(C(C)C)c3c2)c1` [Compound 367], the pIC50 was 6.74.

For the molecule `Cc1cc(C)c(CNC(=O)c2cc(-c3ccc(CNCCN(C)C)cc3)nc3c2cnn3C(C)C)c(=O)[nH]1` [Compound 359], the pIC50 is 5.33.

For the molecule `Cc1cc(C)c(CNC(=O)c2cncc(-c3ccc(CNCCN)cc3)c2)c(=O)[nH]1` [Compound 379], the negative logarithm of the IC50 (pIC50) was 6.48.

As to `CNCCN(C)Cc1cccc(-c2cc(C(=O)NCCC(=O)NCc3c(C)cc(C)[nH]c3=O)c3cnn(C(C)C)c3n2)c1` [Compound 384], the pIC50 is 6.66.

As to `Cc1cc(C)c(CNC(=O)c2cc(CNCCN(C)C)cc3c2cnn3C2CCCC2)c(=O)[nH]1` [Compound 371], the negative logarithm of the IC50 (pIC50) was 4.93.

As for `Cc1cc(C)c(CNC(=O)c2cc(-c3cccc(CNCCN)c3)cc3[nH]ncc23)c(=O)[nH]1` [Compound 366], the negative-log IC50 (pIC50) was 5.62.
